Assay results reported in paper PMC7432509, “Investigating the Product Profiles and Structural Relationships of New Levansucrases with Conventional and Non-Conventional Substrates” (International Journal of Molecular Sciences, 2020).

How the values were obtained:
Format in all cases: biochemical
[1] = molecular target: T1, LS from Paraburkholderia graminis (Paraburkholderia graminis, UniProt B1G3X6); test: HPAEC-PAD time course of sucrose conversion; conditions: 0.8 M sucrose, 30 °C, 5-7 U/mL; fructosyl donor and acceptor
T1 construct: gene BgramDRAFT_4066; pET22b(+), E. coli BL21(DE3), HisTrap purified
T1 sequence (B1G3X6 36-529): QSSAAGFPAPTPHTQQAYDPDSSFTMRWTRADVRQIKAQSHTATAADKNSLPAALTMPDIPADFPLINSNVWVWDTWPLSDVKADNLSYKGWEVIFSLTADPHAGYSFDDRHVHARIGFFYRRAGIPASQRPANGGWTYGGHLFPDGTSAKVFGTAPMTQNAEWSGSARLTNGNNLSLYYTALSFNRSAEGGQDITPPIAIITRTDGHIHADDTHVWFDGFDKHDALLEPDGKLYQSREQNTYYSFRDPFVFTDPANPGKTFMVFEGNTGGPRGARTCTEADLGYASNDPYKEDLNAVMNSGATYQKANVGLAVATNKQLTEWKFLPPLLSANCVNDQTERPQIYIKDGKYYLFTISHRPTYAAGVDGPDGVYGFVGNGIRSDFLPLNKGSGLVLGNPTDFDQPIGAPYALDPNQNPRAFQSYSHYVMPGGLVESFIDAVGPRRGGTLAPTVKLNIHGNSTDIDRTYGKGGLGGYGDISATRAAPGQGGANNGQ

[2] = molecular target: T2, LS from Gluconobacter oxydans (Gluconobacter oxydans, UniProt Q5FSK0); test: HPAEC-PAD time course of sucrose conversion; conditions: 0.8 M sucrose, 30 °C, 5-7 U/mL; fructosyl donor and acceptor
T2 construct: gene GOX0873; pET22b(+), E. coli BL21(DE3), HisTrap purified
T2 sequence (Q5FSK0 1-436): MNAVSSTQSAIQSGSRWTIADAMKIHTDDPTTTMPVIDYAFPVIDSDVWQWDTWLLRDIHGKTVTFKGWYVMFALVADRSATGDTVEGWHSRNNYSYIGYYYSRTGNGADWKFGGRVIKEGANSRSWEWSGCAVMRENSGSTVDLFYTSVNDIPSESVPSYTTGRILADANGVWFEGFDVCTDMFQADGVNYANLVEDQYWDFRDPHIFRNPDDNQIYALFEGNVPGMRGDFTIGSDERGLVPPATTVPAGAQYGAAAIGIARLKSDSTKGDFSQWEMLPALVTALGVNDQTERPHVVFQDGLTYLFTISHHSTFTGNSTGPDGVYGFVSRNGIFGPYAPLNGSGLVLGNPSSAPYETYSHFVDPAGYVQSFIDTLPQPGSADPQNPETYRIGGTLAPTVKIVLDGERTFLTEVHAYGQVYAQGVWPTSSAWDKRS

[3] = molecular target: T3, LS from Vibrio natriegens (Vibrio natriegens, UniProt A0AAN0Y6N0); test: HPAEC-PAD, bioconversion of raffinose; conditions: raffinose as sole fructosyl donor and acceptor (0.8 M in methods, 0.9 M in figure legend)
T3 construct: gene BA890_19745; pET22b(+), E. coli BL21(DE3), HisTrap purified
T3 sequence (A0AAN0Y6N0 28-523): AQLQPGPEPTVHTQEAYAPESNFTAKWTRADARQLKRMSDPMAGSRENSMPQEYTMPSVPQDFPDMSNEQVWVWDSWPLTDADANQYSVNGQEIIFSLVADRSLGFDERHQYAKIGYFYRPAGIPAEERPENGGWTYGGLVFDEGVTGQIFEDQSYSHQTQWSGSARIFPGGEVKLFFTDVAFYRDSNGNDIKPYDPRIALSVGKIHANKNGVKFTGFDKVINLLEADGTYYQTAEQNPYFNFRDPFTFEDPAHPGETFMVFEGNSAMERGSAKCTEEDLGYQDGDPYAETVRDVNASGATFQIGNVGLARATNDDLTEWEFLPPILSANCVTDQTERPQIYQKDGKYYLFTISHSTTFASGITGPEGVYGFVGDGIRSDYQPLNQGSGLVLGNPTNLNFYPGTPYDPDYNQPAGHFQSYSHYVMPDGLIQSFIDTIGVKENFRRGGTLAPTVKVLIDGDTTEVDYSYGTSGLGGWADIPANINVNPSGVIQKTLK

[4] = molecular target: T2, LS from Gluconobacter oxydans; test: HPAEC-PAD, bioconversion of raffinose; conditions: raffinose as sole fructosyl donor and acceptor (0.8 M in methods, 0.9 M in figure legend)
[5] = molecular target: T4, LS from Beijerinckia indica subsp. indica (Beijerinckia indica, UniProt B2IF78); test: HPAEC-PAD, bioconversion of raffinose; conditions: raffinose as sole fructosyl donor and acceptor (0.8 M in methods, 0.9 M in figure legend)
T4 construct: gene Bind_2021; pET22b(+), E. coli BL21(DE3), HisTrap purified
T4 sequence (B2IF78 29-534): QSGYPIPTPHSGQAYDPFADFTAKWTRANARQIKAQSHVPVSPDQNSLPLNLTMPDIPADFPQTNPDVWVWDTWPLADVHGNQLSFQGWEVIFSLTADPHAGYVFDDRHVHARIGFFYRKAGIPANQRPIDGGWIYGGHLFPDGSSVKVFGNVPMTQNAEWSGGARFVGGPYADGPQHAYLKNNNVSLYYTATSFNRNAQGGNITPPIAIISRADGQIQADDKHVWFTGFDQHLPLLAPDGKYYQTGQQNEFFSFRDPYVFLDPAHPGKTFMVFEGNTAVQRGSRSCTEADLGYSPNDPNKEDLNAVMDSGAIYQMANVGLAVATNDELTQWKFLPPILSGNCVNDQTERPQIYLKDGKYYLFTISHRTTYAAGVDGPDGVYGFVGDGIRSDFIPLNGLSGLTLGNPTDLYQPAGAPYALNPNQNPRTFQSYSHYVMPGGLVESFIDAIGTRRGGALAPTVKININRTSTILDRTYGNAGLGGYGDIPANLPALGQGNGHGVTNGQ

[6] = molecular target: T5, LS from Novosphingobium aromaticivorans (Novosphingobium aromaticivorans, UniProt Q2G754); test: HPAEC-PAD, bioconversion of raffinose; conditions: raffinose as sole fructosyl donor and acceptor (0.8 M in methods, 0.9 M in figure legend)
T5 construct: gene Saro_1879; pET22b(+), E. coli BL21(DE3), HisTrap purified
T5 sequence (Q2G754 1-377): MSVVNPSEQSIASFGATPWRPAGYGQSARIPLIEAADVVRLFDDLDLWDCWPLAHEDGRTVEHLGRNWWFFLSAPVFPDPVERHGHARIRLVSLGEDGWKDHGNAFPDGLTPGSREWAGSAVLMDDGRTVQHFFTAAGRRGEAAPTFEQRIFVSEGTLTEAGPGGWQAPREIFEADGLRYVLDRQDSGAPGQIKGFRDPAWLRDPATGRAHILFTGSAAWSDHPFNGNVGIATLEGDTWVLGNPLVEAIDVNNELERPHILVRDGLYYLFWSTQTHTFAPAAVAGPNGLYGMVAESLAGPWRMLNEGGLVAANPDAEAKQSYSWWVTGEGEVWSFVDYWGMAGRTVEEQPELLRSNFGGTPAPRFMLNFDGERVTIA

[7] = molecular target: T1, LS from Paraburkholderia graminis; test: HPAEC-PAD, bioconversion of raffinose; conditions: raffinose as sole fructosyl donor and acceptor (0.8 M in methods, 0.9 M in figure legend)

Row | SMILES | HPAEC-PAD time course of sucrose conversion [1] | HPAEC-PAD time course of sucrose conversion [2] | HPAEC-PAD, bioconversion of raffinose [3] | HPAEC-PAD, bioconversion of raffinose [4] | HPAEC-PAD, bioconversion of raffinose [5] | HPAEC-PAD, bioconversion of raffinose [6] | HPAEC-PAD, bioconversion of raffinose [7]
1 | OC[C@H]1O[C@@](CO)(O[C@H]2O[C@H](CO)[C@@H](O)[C@H](O)[C@H]2O)[C@@H](O)[C@@H]1O [sucrose] | The LS from P. graminis used the highest amount of sucrose amongst all the enzymes tested | The LSs from G. oxydans and P. graminis almost depleted the sucrose |  |  |  |  | 
2 | OC[C@H]1O[C@H](OC[C@H]2O[C@H](O[C@]3(CO)O[C@H](CO)[C@@H](O)[C@@H]3O)[C@H](O)[C@@H](O)[C@@H]2O)[C@H](O)[C@@H](O)[C@H]1O [raffinose] |  |  | LS from V. natriegens, N. aromaticivorans, and B. indica subsp. indica preferred raffinose as the substrate | All LSs were able to produce a few different trisaccharides | LS from V. natriegens, N. aromaticivorans, and B. indica subsp. indica preferred raffinose as the substrate | LS from V. natriegens, N. aromaticivorans, and B. indica subsp. indica preferred raffinose as the substrate | LS from P. graminis catalyzed the synthesis of multiple oligosaccharides using raffinose
